Laboratory results: US3969523A, “Antiphlogistic pharmaceutical compositions containing a 1-(nicotinoyl or isonicotinoyl)-3-biphenylyl-alkanone-(2)” (Boehringer Ingelheim GmbH, priority 1973, dated 1976)

Columns and labels:
in vivo = conditions: rat, po
Protocol: The ulcerogenic activity in the rat was determined after oral administration of the compound for 3 times after 24 hours each time. The animals were killed 4 hours after that, and the number of the animals having an ulcer was recorded.

[1] = Peroral acute toxicity in rats; conditions: in vivo, po; rat; 50% died within 14 days; Litchfield and Wilcoxon
Protocol: The peroral acute toxicity of the compounds was determined on groups of 10 rats each.

[2] = test system: kaolin-induced edema of the hind paw of the rat; experiment: Antiphlogistic activity: antiexsudative effect on kaolin-induced edema of the hind paw of the rat, oral; format: in vivo; conditions: p.o., dose leading to 35% reduction of swelling, graphically determined
Protocol: (§1) The antiphlogistic activity was tested to determine the antiexsudative effect on the kaolin-induced edema (see Hillebrecht in Arzneimittelforschung 4, 607 - 614 (1954) and the carrageenin-induced edema (see Winter in Proc. Soc. Exper. Biol. Med. 111, 544 (1962)) of the hind paw of the rat after oral administration of at least 3 doses to at least 10 animals per dose. The dose leading to a 35% reduction of the swelling (ED35) was graphically determined.

[3] = test system: carrageenin-induced edema of the hind paw of the rat; experiment: Antiphlogistic activity: antiexsudative effect on carrageenin-induced edema of the hind paw of the rat, oral; format: in vivo; conditions: p.o., dose leading to 35% reduction of swelling, graphically determined
Protocol: as §1

Question: Which results are given for `CC(C(=O)COC(=O)c1ccncc1)c1ccc(-c2ccccc2F)cc1` (stereo not shown) [A, 1-isonicotinoyloxy-3-(2'-fluoro-4"-biphenylyl)-butanone-(2)]?
Answer: TD50 (in vivo): 71 mg/kg; LD50 at 336 h [1]: 1170 mg/kg; ED35 [2]: 14 mg/kg; ED35 [3]: 22.5 mg/kg
